In patent US11679107B2 (Eisai R&D Management Co., Ltd., priority 2018, dated 2023):
Where two headings read alike, the source gives them in different places.

What was measured:
SF3b complexes = target: T1, SF3b complexes (Homo sapiens, UniProt O75533+Q7RTV0); assay: Scintillation proximity assay (SPA) with [3H]-labelled pladienolide probe; assay type: binding; conditions: SF3B1 (WT); geometric mean; read-out: SPA-ATS GMean IC50 (nM) SF3B1 (WT)
T1 construct: endogenous in cells; host or cells: Nuclear extracts; A HeLa S3 extract preparation is described for the in vitro splicing assay
Outline: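 SF3b complexes captured from nuclear extracts on anti-SF3B1 antibody SPA beads; test compounds pre-incubated 30 min before 2.5 nM [3H]-pladienolide probe added, then 30 min incubation. Bound probe read by scintillation; values from non-linear regression of concentration–response curves.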

[1] = test system: Ad2 variant pre-mRNAs spliced in HeLa S3 nuclear extracts; assay: In vitro splicing assay (IVS), RT-qPCR of spliced product; assay type: biochemical; conditions: for IC50: geometric mean; for Ratio Ad2.1/2.2: ratio of IVS IC50 Ad2.1 to Ad2.2
Outline: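 Ad2 variant pre-mRNA (2 ng) with FTZΔi control RNA in HeLa S3 nuclear extract (8 μg) was pre-incubated with compound or DMSO for 15 min at 30 °C. Splicing ran 90 min at 30 °C after adding 0.5 mM ATP, creatine phosphate and MgCl2. Spliced product was quantified by TaqMan RT-qPCR, normalized to DMSO, and curve-fitted.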

[2] = test system: NCI-H1568 cells (high MCL1); assay: Cell proliferation and viability, CellTiter-Glo, 72 hours; assay type: cell-based; conditions: for GI50: geometric mean
Outline: (§1)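 Cells grown in RPMI-1640 with 10% FBS (Panc 05.04 with added insulin, 15% FBS total) were exposed to an 11-point half-log dilution, typically 10 μM–100 pM, at 0.1% DMSO for 72 h at 37 °C. ATP content was read by CellTiter-Glo luminescence. Percent inhibition was set against a time-zero plate and DMSO vehicle wells, on a −100% (cidal) to 100% (uninhibited growth) scale.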

[3] = test system: Panc 05.04 cells (SF3b K700E mutant); assay: as above; assay type: cell-based; conditions: for GI50: geometric mean
Outline: as §1

[4] = Ad2.1 pre-mRNA substrate, read-out: qPCR-IVS-ATS GMean IC50 (nM) Ad2.1
[5] = Ad2.2 pre-mRNA substrate, read-out: qPCR-IVS-ATS GMean IC50 (nM) Ad2.2
[6] = NCI-H1568, read-out: CTGlo-ATS GMean GI50 (nM) 72 h NCIH1568.1, NCIH1568.1 cells, 72 h
[7] = NCIH1568.1 cells, 72 h, −100% cidal, 0% static, 100% maximal growth
[8] = PANC0504.1 cells, 72 h, −100% cidal, 0% static, 100% maximal growth
[9] = Panc 05.04, read-out: CTGlo-ATS GMean GI50 (nM) 72 h PANC0504.1, PANC0504.1 cells, 72 h
[10] = 72 h, NCIH1568.1, -100% = cidal, 0% = static, 100% = uninhibited growth
[11] = 72 h, PANC0504.1, -100% = cidal, 0% = static, 100% = uninhibited growth
[12] = NCI-H1568, 72 h, read-out: CTGlo-ATS GMean GI50 (nM) 72 h NCIH1568.1, 72 h, NCIH1568.1
[13] = Panc 05.04, 72 h, read-out: CTGlo-ATS GMean GI50 (nM) 72 h PANC0504.1, 72 h, PANC0504.1
[14] = NCI-H1568, 72 h, read-out: CTGlo-ATS GMean GI50 (nM) 72 h NCIH1568.1, NCIH1568.1 cells, 72 h
[15] = Panc 05.04, 72 h, read-out: CTGlo-ATS GMean GI50 (nM) 72 h PANC0504.1, PANC0504.1 cells, 72 h

Compound	IC50 (SF3b complexes)	IC50 [1, 4]	IC50 [1, 5]	GI50 [2, 6]	CTGlo-ATS Mean MinResponse % 72 h NCIH1568.1 [2, 7]	CTGlo-ATS Mean MinResponse % 72 h PANC0504.1 [3, 8]	GI50 [3, 9]	Ratio Ad2.1/2.2 [1]	CTGlo-ATS Mean MinResponse % 72 h NCIH1568.1 [2, 10]	GI50 ([2]; NCI-H1568, read-out: CTGlo-ATS GMean GI50 (nM) 72 h NCIH1568.1, 72 h, NCIH1568.1)	CTGlo-ATS Mean MinResponse % 72 h PANC0504.1 [3, 11]	GI50 ([3]; Panc 05.04, read-out: CTGlo-ATS GMean GI50 (nM) 72 h PANC0504.1, 72 h, PANC0504.1)	GI50 [2, 12]	GI50 [3, 13]	GI50 [2, 14]	GI50 [3, 15]
C/C(=C\c1cc(F)c2nnn(C3CCOCC3)c2c1)[C@H]1OC(=O)C[C@H](O)CC[C@H](C)[C@@H](OC(=O)N2CCN(C)CC2)/C=C/[C@@H]1C [Compound 140]	1.73 nM	11.6 nM	11.8 nM	1.25 nM	−82.434%	−80.398%	1.63 nM									
C/C(=C\c1cc(F)cc(NS(=O)(=O)N(C)C)c1)[C@H]1OC(=O)C[C@H](O)CC[C@H](C)[C@@H](OC(=O)N2CCN(C)CC2)/C=C/[C@@H]1C [Compound 248, [(2S,3S,4E,6R,7S,10R)-2-[(E)-1-[3-(dimethylsulfamoylamino)-5-fluorophenyl]prop-1-en-2-yl]-10-hydroxy-3,7-dimethyl-12-oxo-1-oxacyclododec-4-en-6-yl] 4-methylpiperazine-1-carboxylate]	6.62 nM	> 25000 nM	76.4 nM					327.274	−46.753%	97 nM	−92.622%	75.8 nM				
[2H]C([2H])([2H])N1CCN(C(=O)O[C@H]2/C=C/C(C)C(/C(C)=C/c3cc(F)cc(N4CCOCC4)c3)OC(=O)CC(O)CC[C@@H]2C)CC1 (stereo in doubt) [Compound 220, [(2R,3R,4E,6R,7S,10S)-2-[(E)-1-(3-fluoro-5-morpholin-4-ylphenyl)prop-1-en-2-yl]-10-hydroxy-3,7-dimethyl-12-oxo-1-oxacyclododec-4-en-6-yl] 4-(trideuteriomethyl)piperazine-1-carboxylate]	3.17 nM	19.3 nM	14.4 nM					1.344	−76.936%		−90.506%		2.01 nM	4.36 nM		
C/C(=C\c1cc(F)c2nn(C3CCOCC3)nc2c1)[C@H]1OC(=O)C[C@H](O)CC[C@H](C)[C@@H](OC(=O)N2CCN(C)CC2)/C=C/[C@@H]1C [Compound 141]	13 nM	> 25000 nM	61.3 nM	48.8 nM	−63.745%	−94.865%	72.4 nM									
C/C(=C\c1cnn(C)c1)[C@H]1OC(=O)C[C@H](O)CC[C@H](C)[C@@H](OC(=O)N2CCN(C)CC2)/C=C/[C@@H]1C [Compound 103]	258 nM	> 25000 nM	4260 nM		78.168%	80.958%									> 10000 nM	> 10000 nM
C/C(=C\c1cc(F)cc(N2CCOC(C)C2)c1)[C@H]1OC(=O)C[C@H](O)CC[C@H](C)[C@@H](OC(=O)N2CCN(C)CC2)/C=C/[C@@H]1C (some centres unmarked) [Compound 70]	1.55 nM	17.6 nM	16.5 nM		−77.042%	−83.969%									3.37 nM	5.94 nM
C/C(=C\c1cc(F)cc(N2CCN(C(=O)c3cnco3)CC2)c1)[C@H]1OC(=O)C[C@H](O)CC[C@H](C)[C@@H](OC(=O)N2CCN(C)CC2)/C=C/[C@@H]1C [Compound 123]	1.7 nM	16.5 nM	13.1 nM	2.26 nM	−86.056%	−71.328%	2.75 nM									
C/C(=C\c1cc(F)cc(N2CCN(C#CF)C2=O)c1)[C@H]1OC(=O)C[C@H](O)CC[C@H](C)[C@@H](OC(=O)N2CCN(C)CC2)/C=C/[C@@H]1C [Compound 66]	2.23 nM	206 nM	33.9 nM	11.7 nM	−64.699%	−89.623%	8.22 nM									
C/C(=C\c1cc(F)cc(N2CCN(S(=O)(=O)c3ccc4ccn(C)c4c3)CC2)c1)[C@H]1OC(=O)C[C@H](O)CC[C@H](C)[C@@H](OC(=O)N2CCN(C)CC2)/C=C/[C@@H]1C [Compound 115]	144 nM	335 nM	233 nM	88.9 nM	−93.625%	−97.417%	85.2 nM									
C/C(=C\c1cc(F)cc(N2CCN(CC(=O)C3CC3)CC2)c1)[C@H]1OC(=O)C[C@H](O)CC[C@H](C)[C@@H](OC(=O)N2CCN(C)CC2)/C=C/[C@@H]1C [Compound 84]	2.75 nM	29.6 nM	22.1 nM	4.3 nM	−80.428%	−89.010%	5.61 nM									
C/C(=C\c1cc(F)c2cnn(CC(=O)N(C)C)c2c1)[C@H]1OC(=O)C[C@H](O)CC[C@H](C)[C@@H](OC(=O)N2CCN(C)CC2)/C=C/[C@@H]1C [Compound 132]	4.91 nM	34.1 nM	12.8 nM	11.5 nM	−68.423%	−94.673%	13.6 nM									
C/C(=C\c1cc(F)cc(S(=O)(=O)N2CCCC2)c1)[C@H]1OC(=O)C[C@H](O)CC[C@H](C)[C@@H](OC(=O)N2CCN(C)CC2)/C=C/[C@@H]1C [Compound 197, [(2S,3S,4E,6R,7S,10R)-2-[(E)-1-(3-fluoro-5-pyrrolidin-1-ylsulfonylphenyl)prop-1-en-2-yl]-10-hydroxy-3,7-dimethyl-12-oxo-1-oxacyclododec-4-en-6-yl] 4-methylpiperazine-1-carboxylate]	2.67 nM	98.5 nM	22.8 nM					4.318	−69.290%		−91.100%		4.69 nM	3.53 nM		
C/C(=C\c1cccc2[nH]ncc12)[C@H]1OC(=O)C[C@H](O)CC[C@H](C)[C@@H](OC(=O)N2CCN(C)CC2)/C=C/[C@@H]1C [Compound 5]	6.61 nM	1500 nM	94.7 nM	59.7 nM	−38.293%	−17.631%	47.2 nM									
C/C(=C\c1cccc(S(=O)(=O)C2CC2)c1)[C@H]1OC(=O)C[C@H](O)CC[C@H](C)[C@@H](OC(=O)N2CCN(C)CC2)/C=C/[C@@H]1C [Compound 215, [(2S,3S,4E,6R,7S,10R)-2-[(E)-1-(3-cyclopropylsulfonylphenyl)prop-1-en-2-yl]-10-hydroxy-3,7-dimethyl-12-oxo-1-oxacyclododec-4-en-6-yl] 4-methylpiperazine-1-carboxylate]	6.83 nM	20500 nM	50.7 nM					403.817	−42.412%		−81.853%		25 nM	20 nM		
C/C(=C\c1cc(F)cc(N(C)C2CCS(=O)(=O)CC2)c1)[C@H]1OC(=O)C[C@H](O)CC[C@H](C)[C@@H](OC(=O)N2CCN(C)CC2)/C=C/[C@@H]1C [Compound 172]	5.58 nM	22.6 nM	15.4 nM	8.72 nM	−74.177%	−88.455%	17.9 nM									
C/C(=C\c1cc(F)c2cn(CC3CC3)nc2c1)[C@H]1OC(=O)C[C@H](O)CC[C@H](C)[C@@H](OC(=O)N2CCN(C)CC2)/C=C/[C@@H]1C [Compound 99]	4.14 nM	> 25000 nM	156 nM	93.2 nM	−73.818%	−69.788%	78 nM									
